Literature values, collected in patent US7687492B2, “1,2,4-Oxadiazole derivatives as dipeptidyl peptidase-IV inhibitors for the treatment or prevention of diabetes” (Merck Sharp & Dohme Corp., priority 2004, dated 2010).

Key:
[1] = rats; Transplantation, 63: 1495-1500 (1997)
[2] = mouse, cyclophosphamide-induced neutropenia; WO 99/56753
DP-IV = target: T1, DP-IV (Homo sapiens, UniProt P27487)
T1 construct: GRF is rapidly degraded in plasma to GRF[3-44]; host or cells: plasma (endogenous enzyme activity)
T1 sequence (P27487 whole entry): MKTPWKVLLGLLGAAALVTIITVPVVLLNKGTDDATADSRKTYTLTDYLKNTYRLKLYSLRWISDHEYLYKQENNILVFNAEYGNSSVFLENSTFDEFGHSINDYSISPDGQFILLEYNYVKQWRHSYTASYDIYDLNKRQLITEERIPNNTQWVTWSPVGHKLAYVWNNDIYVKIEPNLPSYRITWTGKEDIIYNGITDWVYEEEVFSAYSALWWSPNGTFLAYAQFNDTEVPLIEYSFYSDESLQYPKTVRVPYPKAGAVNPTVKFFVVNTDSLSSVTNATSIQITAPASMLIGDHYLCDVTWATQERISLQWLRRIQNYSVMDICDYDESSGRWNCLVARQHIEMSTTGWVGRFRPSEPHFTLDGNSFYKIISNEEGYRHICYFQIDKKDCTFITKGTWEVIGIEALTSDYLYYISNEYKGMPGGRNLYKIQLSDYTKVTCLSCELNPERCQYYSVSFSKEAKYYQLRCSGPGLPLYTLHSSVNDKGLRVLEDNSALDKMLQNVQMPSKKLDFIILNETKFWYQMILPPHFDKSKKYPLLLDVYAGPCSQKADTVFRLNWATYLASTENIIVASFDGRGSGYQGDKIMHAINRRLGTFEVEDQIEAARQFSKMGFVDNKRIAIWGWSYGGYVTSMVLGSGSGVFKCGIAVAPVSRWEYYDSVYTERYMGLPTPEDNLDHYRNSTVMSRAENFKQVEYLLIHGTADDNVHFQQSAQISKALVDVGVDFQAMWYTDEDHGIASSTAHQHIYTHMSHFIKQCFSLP

CC(C)N1CCC(c2ccccc2)(c2ccccc2)CC1 [Prodipine, Pro-Pro-diphenyl-phosphonate]
cardiac allograft survival [1]: double cardiac allograft survival in rats from day 7 to day 14

CC(C)[C@H](N)C(=O)N1CCC[C@H]1B(O)O [Val-Boro-Pro]
hematopoiesis [2]: stimulated hematopoiesis

diprotin A
degradation of GRF in plasma to GRF[3-44] (DP-IV): prevented
